# Test results as given in EP0469683A1, “Derivatives of 4-amino-1-methyltetralins, their preparation and their application in therapy” (LABORATOIRES LUCIEN, Société Anonyme :, priority 1990, dated 1992).
# Marks after values point to notes of the source that are not given here.
# What was measured:
# Assay type in all cases: in vivo
# rat = experiment: Carrageenan-induced hind paw oedema (plethysmometer); conditions: 15 mg/kg, given 1 h before carrageenan; for % d'inhibitions de l'oedème/témoin à 3 h: 3 h after carrageenan; for % d'inhibitions de l'oedème/témoin à 4 h: 4 h after carrageenan; for % d'inhibitions de l'oedème/témoin à 5 h: 5 h after carrageenan
# From the text: L'activité anti-inflammatoire de composés selon l'invention a été mise en évidence par l'étude de la réduction d'une réaction inflammatoire induite par injection de carragénine sous l'aponévrose plantaire de la patte postérieure du rat (carragénine Sigma type IV, solution de 1 % dans du soluté isotonique de NaCI).
# Le test utilise un appareil de mesure de volume du type "pléthysmométre" constitué d'une structure en U remplie d'eau, une branche du U étant constituée d'un cylindre destiné à recevoir la patte de l'animal (la patte de l'animal est plongée jusqu'à coïncidence de l'articulation tibio-tarsienne avec un repère de base), l'autre branche étant constituée d'une pipette graduée permettant la mesure de volume en mode différentiel.
# Selon le protocole expérimental, au temps "t0" on mesure le volume de la patte de l'animal puis on administre le produit de traitement à étudier (les animaux témoins recevant le véhicule d'administration dans les mêmes conditions). Au temps TO + 1 heure, on injecte sous l'aponévrose plantaire de chaque animal 0,05 ml de la solution de carragénine. Le volume de la patte de l'animal est mesuré 3, 4 et 5 heures après injection de la carragénine.
# L'activité anti-inflammatoire est calculée en pourcentage de réduction de l'oedème chez les rats traités par rapport aux rats témoins.
# souris [1] = experiment: Abdominal cramps test (writhing test), acetic acid i.p.; conditions: for résultats des tests complémentaires (crampes abdominales): other racemic diastereomer compared with the one shown in Tableau 4; for Degré de protection par rapport aux témoins: hydrochloride, 30 min before acetic acid; for Degré de protection par rapport aux témoins à 30´ / Degré de protection par rapport aux témoins à 1 h / Degré de protection par rapport aux témoins à 2 h / Degré de protection par rapport aux témoins à 4 h / Degré de protection par rapport aux témoins à 6 h: 4 mg/kg; for Degré de protection par rapport aux témoins à 30´: reading at 30 min; for Degré de protection par rapport aux témoins à 1 h: reading at 1 h; for Degré de protection par rapport aux témoins à 2 h: reading at 2 h; for Degré de protection par rapport aux témoins à 4 h: reading at 4 h; for Degré de protection par rapport aux témoins à 6 h: reading at 6 h
# Procedure: Ce test, également connu sous le nom de WRITHING TEST, utilisé pour la sélection d'analgésiques/antalgiques à effet périphérique, consiste à rechercher une éventuelle protection vis-à-vis des crampes et/ou contorsions abdominales provoquées, chez la souris, par l'injection intrapéritonéale d'acide acétique.
# Les composés ont été administrés sous forme de chlorhydrate par voie intrapéritonéale 30 minutes avant l'acide acétique.
# Du point de vue cinétique de l'activité antalgique, des tests de crampes abdominales ont été poursuivis dans le temps avec des relevés à 30 minutes, 1 heure, 2 heures, 4 heures et 6 heures.
# souris [2] = experiment: Hot plate test (56 C), reaction time to thermal pain stimulus; conditions: hydrochloride, 1 h after administration
# From the text: Cet essai consiste à mesurer le temps d'apparition d'une réaction au stimulus thermoalgique chez la souris.
# L'animal est placé sur une plaque métallique portée à une température constante de 56 C. […] Après administration d'un analgésique, le délai d'apparition du réflexe s'allonge: on obtient une élévation de réaction du seuil.
# Les composés ont été administrés par voie intrapéritonéale sous forme de chlorhydrate et testés sur les animaux 1 heure après leur administration. Les résultats sont donnés sur quelques exemples dans le tableau 3 suivant un pourcentage de variation du temps de réaction moyen après traitement par rapport à avant traitement.
# souris [3] = experiment: Acute toxicity: mortality after single intraperitoneal administration of increasing doses; conditions: mouse
# Procedure: La détermination de la mortalité chez la souris est observée à la suite de l'administration unique par voie intrapéritonéale de doses croissantes de composés à tester.
# La dose limite DL100 pour les composés étudiés est supérieure ou égale à 100 mg/kg. Les doses DLO et DL100 des composés 27, 32 et 36 sont rassemblées dans le tableau 2: […]
# souris [4] = experiment: Abdominal cramps test (writhing test), acetic acid i.p.; conditions: oral administration; for activité par voie orale: 16 mg/kg
# souris [5] = experiment: Behavioural despair test (forced swimming, immobility time); conditions: 25 mg/kg, given 30 min before 6 min exposure to water
# From the text: L'activité antidépressive de composés selon l'invention a été mise en évidence par l'étude du comportement du désespoir chez la souris.
# Selon le principe du test, un état dépressif est induit chez la souris en l'obligeant à nager dans un récipient cylindrique étroit d'où elle ne peut s'échapper. Après une période brève d'intense activité, la souris adopte une position immobile caractéristique, facilement identifiable. Les antidépresseurs réduisent ces moments d'immobilité.
# Selon le protocole expérimental, les souris sont pré-exposées à l'eau à 25°C pendant 15 minutes, 24 heures avant le test. Pour le test on administre le composé à étudier 30 minutes avant une exposition à l'eau de 6 minutes. Le temps total d'immobilité de la 2e à la 6e minute est mesuré. Les animaux témoins reçoivent le véhicule d'administration du produit de traitement dans les mêmes conditions que les animaux traités.
# [6] = DL100, single dose, intraperitoneal
# [7] = DLO, single dose, intraperitoneal
compound,measurement,setting,value
CC1(c2ccc(F)cc2)CCC(N2CCN(CCOC(=O)Nc3ccccc3)CC2)c2ccccc21 (stereo not drawn) [27.p (cis)],% d'inhibitions de l'oedème/témoin à 3 h,rat,35* %
same,% d'inhibitions de l'oedème/témoin à 4 h,rat,39** %
same,% d'inhibitions de l'oedème/témoin à 5 h,rat,43** %
same,résultats des tests complémentaires (crampes abdominales),souris [1],résultats comparables
CC(=O)OCCN1CCN(C2CCC(C)(c3ccc(F)cc3)c3cc(C(C)(C)C)ccc32)CC1 (stereo not shown) [36.a],Variation du temps de réaction moyen en %,souris [2]; 15mg/kg intraperitoneal,35%
same,Dose limite 0 en,"souris [3]; in vivo, ip",100 mg/kg
same,Dose limite 100 en,"souris [3]; in vivo, ip",>200 mg/kg
same,Degré de protection par rapport aux témoins,souris [1]; 2 mg/kg intraperitoneal,52%
same,Degré de protection par rapport aux témoins,souris [1]; 4 mg/kg intraperitoneal,66%
same,Degré de protection par rapport aux témoins à 30´,souris [1],69***
same,Degré de protection par rapport aux témoins à 1 h,souris [1],82***
same,Degré de protection par rapport aux témoins à 2 h,souris [1],60**
same,Degré de protection par rapport aux témoins à 4 h,souris [1],58***
same,Degré de protection par rapport aux témoins à 6 h,souris [1],38**
same,Degré de protection par rapport aux témoins,souris [1]; 8 mg/kg intraperitoneal,94%
same,Degré de protection par rapport aux témoins,souris [1]; 15 mg/kg intraperitoneal,85%
same,activité par voie orale,souris [4],actifs par voie orale
CC(C)(C)c1ccc2c(c1)C(C)(c1ccccc1)CCC2N1CCOCC1 (stereo not drawn) [39 (trans)],Variation du temps de réaction moyen en %,souris [2]; 25 mg/kg intraperitoneal,58%
same,résultats des tests complémentaires (crampes abdominales),souris [1],résultats comparables
CC(C)(C)c1ccc2c(c1)C(C)(c1ccc(F)cc1)CCC2N1CCN(CCOC(=O)Nc2ccccc2)CC1 (stereo not shown) [36.p],Dose limite 100 en,souris [3]; [6],>200 mg/kg
same,Dose limite 0 en,souris [3]; [7],100 mg/kg
same,activité par voie orale,souris [4],actifs par voie orale
CC(C)(C)c1ccc2c(c1)C(C)(c1ccccc1)CCC2N1CCOCC1 (stereo not drawn) [39 (cis)],Degré de protection par rapport aux témoins,"souris [1]; 0,5 mg/kg intraperitoneal",53%
same,Degré de protection par rapport aux témoins,souris [1]; 1 mg/kg intraperitoneal,58%
same,Degré de protection par rapport aux témoins,souris [1]; 2 mg/kg intraperitoneal,54%
same,Degré de protection par rapport aux témoins,souris [1]; 4 mg/kg intraperitoneal,63%
same,Degré de protection par rapport aux témoins,souris [1]; 8 mg/kg intraperitoneal,89%
CC(C)(C)c1ccc2c(c1)C(C)(c1ccc(F)cc1)CCC2N1CCN(CCOC(=O)Nc2ccccc2)CC1 (stereo not drawn) [36.p (cis)],Degré de protection par rapport aux témoins,"souris [1]; 0,5 mg/kg intraperitoneal",61%
same,Degré de protection par rapport aux témoins,souris [1]; 1 mg/kg intraperitoneal,44%
same,Degré de protection par rapport aux témoins,souris [1]; 2 mg/kg intraperitoneal,61%
same,Degré de protection par rapport aux témoins,souris [1]; 4 mg/kg intraperitoneal,90%
same,Degré de protection par rapport aux témoins à 30´,souris [1],89***
same,Degré de protection par rapport aux témoins à 1 h,souris [1],69***
same,Degré de protection par rapport aux témoins à 2 h,souris [1],68***
same,Degré de protection par rapport aux témoins à 4 h,souris [1],46**
same,Degré de protection par rapport aux témoins à 6 h,souris [1],24
same,Degré de protection par rapport aux témoins,souris [1]; 8 mg/kg intraperitoneal,93%
CC(C)(C)c1ccc2c(c1)C(C)(c1ccccc1)CCC2N1CCN(CCO)CC1 (stereo not shown) [compound 32],Variation du temps de réaction moyen en %,souris [2]; 8mg/kg intraperitoneal,16%
same,Dose limite 0 en,"souris [3]; in vivo, ip",25 mg/kg
same,Dose limite 100 en,"souris [3]; in vivo, ip",100 mg/kg
same,Degré de protection par rapport aux témoins,souris [1]; 8 mg/kg intraperitoneal,41%
CC(C)(C)c1ccc2c(c1)C(C)(c1ccc(F)cc1)CCC2N1CCN(CCOC(=O)Nc2cccc3ccccc23)CC1 (stereo not shown) [36.n],Dose limite 0 en,souris [3]; [7],>200 mg/kg
CC(C)(C)c1ccc2c(c1)C(C)(c1ccc(F)cc1)CCC2N1CCN(CCOC(=O)Nc2ccccc2)CC1 (stereo not drawn) [36.p (trans)],Variation du temps de réaction moyen en %,souris [2]; 25 mg/kg intraperitoneal,63* %
same,résultats des tests complémentaires (crampes abdominales),souris [1],résultats comparables
CC1(c2ccc(F)cc2)CCC(N2CCN(CCOC(=O)Nc3ccccc3)CC2)c2ccccc21 (stereo not shown) [27.p],Dose limite 0 en,souris [3]; [7],>200 mg/kg
CC1(c2ccc(F)cc2)CCC(N2CCN(CCOC(=O)Nc3ccccc3)CC2)c2ccccc21 (stereo not drawn) [27.p (trans)],% d'inhibitions de l'oedème/témoin à 3 h,rat,40** %
same,% d'inhibitions de l'oedème/témoin à 4 h,rat,40*** %
same,% d'inhibitions de l'oedème/témoin à 5 h,rat,39** %
same,activité antidépressive,souris [5],activité antidépressive certaine
same,Degré de protection par rapport aux témoins,"souris [1]; 0,5 mg/kg intraperitoneal",58%
same,Degré de protection par rapport aux témoins,"souris [1]; 0,25 mg/kg intraperitoneal",47%
same,Degré de protection par rapport aux témoins,souris [1]; 1 mg/kg intraperitoneal,70%
same,Degré de protection par rapport aux témoins,souris [1]; 2 mg/kg intraperitoneal,68%
same,Degré de protection par rapport aux témoins,souris [1]; 4 mg/kg intraperitoneal,75%
same,Degré de protection par rapport aux témoins à 30´,souris [1],84***
same,Degré de protection par rapport aux témoins à 1 h,souris [1],68***
same,Degré de protection par rapport aux témoins à 2 h,souris [1],53**
same,Degré de protection par rapport aux témoins à 4 h,souris [1],56***
same,Degré de protection par rapport aux témoins à 6 h,souris [1],21
same,Degré de protection par rapport aux témoins,souris [1]; 8 mg/kg intraperitoneal,92%
CC1(c2ccc(F)cc2)CCC(N2CCN(CCO)CC2)c2ccccc21 (stereo not shown) [compound 27],Variation du temps de réaction moyen en %,souris [2]; 15mg/kg intraperitoneal,29%
same,Dose limite 100 en,souris [3]; [6],200 mg/kg
same,Dose limite 0 en,souris [3]; [7],100 mg/kg
same,doses limites DLO et DL100 par rapport à l'amino-4-trifluorométhyl-1 tétraline correspondante,"souris [3]; intraperitoneal, compared with the corresponding 4-amino-1-trifluoromethyl tetralin",deux fois
same,Degré de protection par rapport aux témoins,souris [1]; 4 mg/kg intraperitoneal,49%
same,Degré de protection par rapport aux témoins,souris [1]; 8 mg/kg intraperitoneal,66%
same,Degré de protection par rapport aux témoins,souris [1]; 15 mg/kg intraperitoneal,92%
same,pourcentages de protection,"souris [1]; oral administration, 32 mg/kg",37%
same,activité par rapport à l'amino-4-trifluoro-méthyl-1 tétraline correspondante,"souris [1]; writhing test, intraperitoneal",activité nettement améliorée
same,pourcentages de protection,souris [4]; 60 mg/kg,86%
